Results reported in patent US6509328B1, “Glutamate receptor antagonists” (Hoffmann-La Roche Inc., priority 1999, dated 2003).

| Structure (SMILES) | melting point |
| --- | --- |
| C[Si](C)(C)C#Cc1cccc(C2=Nc3ccc(C#Cc4ccccc4)cc3NC(=O)C2)c1 | 169 to 171 °C (dec.) |
| Cc1ccc(C#Cc2ccc3c(c2)NC(=O)CC(c2cccc(C#N)c2)=N3)cc1 [Example 3, 3-(4-Oxo-7-p-tolylethynyl-4,5-dihydro-3H-benzo[b][1,4]diazepin-2-yl)-benzonitrile] | 236 to 239 °C (dec.) |
| N#Cc1cccc(C2=Nc3ccc(C#Cc4ccccc4Cl)cc3NC(=O)C2)c1 [Example 4, 3-[7-(2-Chloro-phenylethynyl)-4-oxo-4,5-dihydro-3H-benzo[b][1,4]diazepin-2-yl]-benzonitrile] | 239 to 240 °C (dec.) |
| COc1ccc(-c2ccc3c(c2)NC(=O)CC(c2cccc(C#N)c2)=N3)cc1 [Example 6, 3-[7-(4-Methoxy-phenyl)-4-oxo-4,5-dihydro-3H-benzo[b][1,4]diazepin-2-yl]-benzonitrile] | 236 to 237 °C (dec.) |
| N#Cc1cccc(C2=Nc3ccc(-c4ccsc4)cc3NC(=O)C2)c1 [Example 7, 3-(4-Oxo-7-thiophen-3-yl-4,5-dihydro-3H-benzo[b][1,4]diazepin-2-yl)-benzonitrile] | 238 to 243 °C (dec.) |
| N#Cc1cccc(C2=Nc3ccc(-c4ccco4)cc3NC(=O)C2)c1 [Example 8, 3-(7-Furan-2-yl-4-oxo-4,5-dihydro-3H-benzo[b][1,4]diazepin-2-yl)-benzonitrile] | 205 to 210 °C (dec.) |
| CCc1ccc(-c2ccc3c(c2)NC(=O)CC(c2cccc(C#N)c2)=N3)cc1 [Example 9, 3-[7-(4-Ethyl-phenyl)-4-oxo-4,5-dihydro-3H-benzo[b][1,4]diazepin-2-yl]-benzonitrile] | 225 to 229 °C (dec.) |
| N#Cc1cccc(C2=Nc3ccc(-c4ccccc4)cc3NC(=O)C2)c1 [Example 10, 3-(4-Oxo-7-phenyl-4,5-dihydro-3H-benzo[b][1,4]diazepin-2-yl)-benzonitrile] | 238 to 240 °C (dec.) |
| O=C1CC(c2cccc(I)c2)=Nc2ccc(C#Cc3ccccc3)cc2N1 [Example 11, 4-(3-Iodo-phenyl)-8-phenylethynyl-1,3-dihydro-benzo[b][1,4]diazepin-2-one] | 227 to 229 °C (dec.) |
| O=C1CC(c2ccncc2)=Nc2ccc(C#Cc3ccccc3)cc2N1 [Example 12, 8-Phenylethynyl-4-pyridin-4-yl-1,3-dihydro-benzo[b][1,4]diazepin-2-one] | 198 to 200 °C (dec.) |
| N#Cc1cccc(C2=Nc3ccc(-c4ccoc4)cc3NC(=O)C2)c1 [Example 14, 3-(7-Furan-3-yl-4-oxo-4,5-dihydro-3H-benzo[b][1,4]diazepin-2-yl)-benzonitrile] | 228 to 233 °C (dec.) |
| N#Cc1cccc(C2=Nc3ccc(-c4ccc(Cl)cc4)cc3NC(=O)C2)c1 [Example 15, 3-[7-(4-Chloro-phenyl)-4-oxo-4,5-dihydro-3H-benzo[b][1,4]diazepin-2-yl]-benzonitrile] | 244 to 250 °C (dec.) |
| N#Cc1cccc(C2=Nc3ccc(C#Cc4ccc(Cl)cc4)cc3NC(=O)C2)c1 [Example 16, 3-[7-(4-Chloro-phenylethynyl)-4-oxo-4,5-dihydro-3H-benzo[b][1,4]diazepin-2-yl]-benzonitrile] | 237 to 240 °C (dec.) |
| O=C1CC(c2cccc(Cl)c2)=Nc2ccc(-c3ccccc3)cc2N1 [Example 19, 4-(3-Chloro-phenyl)-8-phenyl-1,3-dihydro-benzo[b][1,4]diazepin-2-one] | 208 °C (dec.) |
| N#Cc1cccc(C2=Nc3ccc(-c4cccc5ccccc45)cc3NC(=O)C2)c1 [Example 20, 3-(7-Naphthalen-1-yl-4-oxo-4,5-dihydro-3H-benzo[b][1,4]diazepin-2-yl)-benzonitrile] | 240 to 245 °C (dec.) |
| N#Cc1cccc(C2=Nc3ccc(C#Cc4nccs4)cc3NC(=O)C2)c1 [Example 21, 3-(4-Oxo-7-thiazol-2-ylethynyl-4,5-dihydro-3H-benzo[b][1,4]diazepin-2-yl)-benzonitrile] | 230 °C (dec.) |
| Cc1ccc(-c2ccc3c(c2)NC(=O)CC(c2cccc(C#N)c2)=N3)cc1 [Example 22, 3-(4-Oxo-7-p-tolyl-4,5-dihydro-3H-benzo[b][1,4]diazepin-2-yl)-benzonitrile] | 242 to 245 °C (dec.) |
| O=C1CC(c2sccc2Cl)=Nc2ccc(-c3ccccn3)cc2N1 [Example 23, 4-(3-Chloro-thiophen-2-yl)-8-pyridin-2-yl-1,3-dihydro-benzo[b][1,4]diazepin-2-one] | 220 to 225 °C (dec.) |
| N#Cc1cccc(C2=Nc3ccc(-c4cccs4)cc3NC(=O)C2)c1 [Example 24, 3-(4-Oxo-7-thiophen-2-yl-4,5-dihydro-3H-benzo[b][1,4]diazepin-2-yl)-benzonitrile] | > 250 °C (dec.) |
| O=C1CC(c2cccs2)=Nc2ccc(I)cc2N1 [Example 25, 8-Iodo-4-thiophen-2-yl-1,3-dihydro-benzo[b][1,4]diazepin-2-one] | > 260 °C |

| Structure (SMILES) | melting point |
| --- | --- |
| N#Cc1cccc(C2=Nc3ccc(C#Cc4ccccn4)cc3NC(=O)C2)c1 [Example 26, 3-(4-Oxo-7-pyridin-2-ylethynyl-4,5-dihydro-3H-benzo[b][1,4]diazepin-2-yl)-benzonitrile] | 229 to 231 °C (dec.) |
| N#Cc1cccc(C2=Nc3ccc(-c4ccccn4)cc3NC(=O)C2)c1 [Example 28, 3-(4-Oxo-7-pyridin-2-yl-4,5-dihydro-3H-benzo [b][1,4]diazepin-2-yl)-benzonitrile] | 243 to 244 °C (dec.) |
| O=C1CC(c2ccsc2)=Nc2ccc(-c3ccccc3)cc2N1 [Example 29, 8-Phenyl-4-thiophen-3-yl-1,3-dihydro-benzo [b][1,4]diazepin-2-one] | 233 °C (dec.) |
| Cc1cccc(-c2ccc3c(c2)NC(=O)CC(c2cccc(C#N)c2)=N3)c1 [Example 30, 3-(4-Oxo-7-m-tolyl-4,5-dihydro-3H-benzo [b][1,4]diazepin-2-yl)-benzonitrile] | 248 to 251 °C (dec.) |
| N#Cc1cccc(C2=Nc3ccc(-c4ccc(Cl)c(Cl)c4)cc3NC(=O)C2)c1 [Example 31, 3-[7-(3,4-Dichloro-phenyl)-4-oxo-4,5-dihydro-3H-benzo [b][1,4]diazepin-2-yl]-benzonitrile] | 252 to 255 °C (dec.) |
| O=C1CC(c2cccc(C(F)(F)F)c2)=Nc2ccc(-c3ccccc3)cc2N1 [Example 32, 8-Phenyl-4-(3-trifluoromethyl-phenyl)-1,3-dihydro-benzo [b][1,4]diazepin-2-one] | 210 °C (dec.) |
| N#Cc1cccc(C2=Nc3ccc(-c4ccccc4Cl)cc3NC(=O)C2)c1 [Example 33, 3-[7-(2-Chloro-phenyl)-4-oxo-4,5-dihydro-3H-benzo [b][1,4]diazepin-2-yl]-benzonitrile] | 240 to 244 °C (dec.) |
| Cc1ccccc1-c1ccc2c(c1)NC(=O)CC(c1sccc1Cl)=N2 [Example 34, 4-(3-Chloro-thiophen-2-yl)-8-o-tolyl-1,3-dihydro-benzo [b][1,4]diazepin-2-one] | 247 to 248 °C (dec.) |
| O=C1CC(c2cccc(Cl)c2)=Nc2ccc(C(=O)c3ccccc3)cc2N1 [Example 35, 8-Benzoyl-4-(3-chloro-phenyl)-1,3-dihydro-benzo [b][1,4]diazepin-2-one] | 199 to 202 °C (dec.) |
| N#Cc1cccc(C2=Nc3ccc(C(=O)c4ccccc4)cc3NC(=O)C2)c1 [Example 36, 3-(7-Benzoyl-4-oxo-4,5-dihydro-3H-benzo [b][1,4]diazepin-2-yl)-benzonitrile] | 207 °C (dec.) |
| O=C1CC(c2sccc2Cl)=Nc2ccc(-c3ccccc3)cc2N1 [Example 38, 4-(3-Chloro-thiophen-2-yl)-8-phenyl-1,3-dihydro-benzo [b][1,4]diazepin-2-one] | 228 °C (dec.) |
| COc1cccc(-c2ccc3c(c2)NC(=O)CC(c2cccc(C#N)c2)=N3)c1 [Example 39, 3-[7-(3-Methoxy-phenyl)-4-oxo-4,5-dihydro-3H-benzo [b][1,4]diazepin-2-yl]-benzonitrile] | 240 to 243 °C (dec.) |
| N#Cc1cccc(C2=Nc3ccc(-c4cccnc4)cc3NC(=O)C2)c1 [Example 40, 3-(4-Oxo-7-pyridin-3-yl-4,5-dihydro-3H-benzo [b][1,4]diazepin-2-yl)-benzonitrile] | 210 to 214 °C (dec.) |
| O=C1CC(c2cccs2)=Nc2ccc(-c3ccc(=O)[nH]c3)cc2N1 [Example 41, 8-(6-Oxo-1,6-dihydro-pyridin-3-yl)-4-thiophen-2-yl-1,3-dihydro-benzo [b][1,4]diazepin-2-one] | > 250 °C |
| O=C1CC(c2cccc(C(F)(F)F)c2)=Nc2ccc(-c3ccc(OCc4ccccc4)nc3)cc2N1 [Example 42, 8-(6-Benzyloxy-pyridin-3-yl)-4-(3-trifluoromethyl-phenyl)-1,3-dihydro-benzo [b][1,4]diazepin-2-one] | 195 °C (dec.) |
| N#Cc1cccc(C2=Nc3ccc(-c4ccc(OC(F)(F)F)cc4)cc3NC(=O)C2)c1 [Example 43, 3-[4-Oxo-7-(4-trifluoromethoxy-phenyl)-4,5-dihydro-3H-benzo [b][1,4]diazepin-2-yl]-benzonitrile] | 237 to 241 °C (dec.) |
| N#Cc1cccc(C2=Nc3ccc(-c4ccncc4)cc3NC(=O)C2)c1 [Example 44, 3-(4-Oxo-7-pyridin-4-yl-4,5-dihydro-3H-benzo[b][1,4]diazepin-2-yl)-benzonitrile] | > 200 °C (dec.) |
| N#Cc1cccc(C2=Nc3ccc(C4=CCN(S(=O)(=O)c5ccccc5)CC4)cc3NC(=O)C2)c1 [Example 45, 3-[7-(1-Benzenesulfonyl-1,2,3,6-tetrahydro-pyridin-4-yl)-4-oxo-4,5-dihydro-3H-benzo [b][1,4]diazepin-2-yl]-benzonitrile] | 92 to 95 °C (dec.) |
| CS(=O)(=O)N1CC=C(c2ccc3c(c2)NC(=O)CC(c2cccc(C#N)c2)=N3)CC1 [Example 46, 3-[7-(1-Methanesulfonyl-1,2,3,6-tetrahydro-pyridin-4-yl)-4-oxo-4,5-dihydro-3H-benzo [b][1,4]diazepin-2-yl]-benzonitrile] | 211 to 213 °C (dec.) |
| CC(=O)N1CC=C(c2ccc3c(c2)NC(=O)CC(c2cccc(C#N)c2)=N3)CC1 [Example 47, 3-[7-(1-Acetyl-1,2,3,6-tetrahydro-pyridin-4-yl)-4-oxo-4,5-dihydro-3H-benzo [b][1,4]diazepin-2-yl]-benzonitrile] | 220 to 222 °C (dec.) |
